Assay results published in US5679673A (priority 1994, dated 1997).

Assays:
NMDA receptor = details: C. Carter et al, J. Pharm Exp. Ther., 1988; cited from earlier work
sigma receptor [1] = details: de Costa et al, J. Med. Chem. 1989 and further structure activity studies; cited from earlier work
sigma receptor [2] = target: T1, sigma receptor (Cavia porcellus, UniProt Q60492); assay: Radioreceptor assay: displacement of [3H](+)-pentazocine from guinea pig brain membranes; format: binding; details: [3H](+)-pentazocine 3 nM, guinea pig brain crude P2 membranes, pH 8.0, 120 min, 25° C.; average of 2-4 experiments; from IC50 by Cheng-Prusoff; read-out: Ki ([3H] (+) -Pent)
T1 construct: crude synaptosomal (P2) membrane fraction of guinea pig brain; tissue Pel-Freeze (frozen guinea pig brains); host or cells: guinea pig brain minus cerebella, crude P2 membranes
T1 sequence (Q60492 whole entry): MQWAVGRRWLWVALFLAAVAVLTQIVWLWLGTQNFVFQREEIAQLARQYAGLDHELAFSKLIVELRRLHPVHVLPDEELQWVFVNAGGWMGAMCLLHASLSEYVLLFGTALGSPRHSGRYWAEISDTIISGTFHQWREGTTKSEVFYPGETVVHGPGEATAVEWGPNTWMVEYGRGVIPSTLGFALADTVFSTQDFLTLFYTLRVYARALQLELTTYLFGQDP

Molecule | NMDA receptor antagonism (NMDA receptor) | sigma receptor ligand (sigma receptor [1]) | other results
1-(4-chlorophenyl)-2-[1-(4-fluorophenyl)-piperidinyl]ethanol | non-competitive NMDA receptor antagonists | – | –
CN(CCc1ccc(Cl)c(Cl)c1)[C@@H]1CCCC[C@@H]1N1CCCC1 (single isomer, unassigned) [(+)-cis-N-[3,4-dichlorophenylethyl]-N-methyl-2-(1-pyrrolidinyl)-cyclohexylamine] | – | extremely potent and selective ligands for the sigma receptor | –
CN(CCc1ccc(Cl)c(Cl)c1)[C@@H]1CCCC[C@@H]1N1CCCC1 (single isomer, unassigned) [(-)-cis-N-[3,4-dichlorophenylethyl]-N-methyl-2-(1-pyrrolidinyl)-cyclohexylamine] | – | extremely potent and selective ligands for the sigma receptor | –
Clc1ccc(CCN2CCN3CCC2CC3)cc1Cl [Compound of Ex. 5, 4-[2-(3,4-Dichlorophenyl)ethyl]-1,4-diazabicyclo[2.2.3]nonane] | – | – | Ki (sigma receptor [2]): 125 nM
CC(C(O)c1ccc(O)cc1)N1CCC(Cc2ccccc2)CC1 (centres unmarked) [ifenprodil] | non-competitive NMDA receptor antagonists | – | –
